In general, Ki refers to the equilibrium dissociation constant of an inhibitor or competing ligand from its target. The melting point is the temperature, or range, at which the solid turns liquid. The IC50 is the point on the concentration scale where inhibition reaches its midpoint.

The values below come from patent publication US8476300B2, “Selective estrogen receptor modulator for the treatment of osteoarthritis” (Eli Lilly and Company, priority 2008, dated 2013).

The subject of data set [1] is Ishikawa cells. As to the kind of experiment: Ishikawa cell proliferation assay (alkaline phosphatase readout; agonist and antagonist modes). The data set is classed as cell-based. Conditions: for agonist activity: agonist mode, compound alone, versus the response to tamoxifen. The method, then:
Ishikawa Cell Proliferation Assay:
This assay measures cell proliferation (using an alkaline phosphatase readout) in both an agonist mode in the presence of a test compound alone, and in an antagonist mode in which the ability of a test compound to block estradiol stimulation of growth is measured.
After an overnight incubation, Ishikawa cells are rinsed with Dulbecco's Phosphate Buffered Saline (“D-PBS”) without Ca^+2 and Mg^+2, and trypsinized by a 3 minute incubation with 0.25% Trypsin/EDTA, phenol red-free. Cells are re-suspended in assay medium and adjusted to 250,000 cells/mL. Approximately 25,000 cells in a 100 μl media are added to flat-bottom 96 wells microculture plates and incubated at 37° C. in a 5% CO2 humidified incubator for 24 hours. The next day, serial dilutions of compounds are prepared in assay medium (at 6 times the final concentration in the assay). The assay is run in dual mode, agonist and antagonist modes.
For the agonist mode, plates receive 25 μL/well of assay medium followed by 25 μL/well of a diluted test compound (at 6× the final concentrations). For the antagonist mode, plates receive 25 μL/well of 6 nM 17 β-estradiol (“E2”) followed by 25 μL/well of a diluted test compound (at 6× the final concentrations). After an additional 48-hour incubation at 37° C. in a 5% CO2 humidified incubator, media is aspirated from wells and 100 μL fresh assay medium is added to each microculture. Serial dilutions of compounds are prepared and added to the cells as described above. After an additional 72 hour incubation at 37° C. in a 5% CO2 humidified incubator, the assay is quenched by removing media and rinsing plates twice in D-PBS. The plates are dried for 5 minutes and frozen at −70° C. for at least 1 hour. The plates are then removed from the freezer and allowed to thaw at room temperature. After a 20-minute incubation, plates are read on a spectophotometer at 405 nm.
The data are fitted using a 4 parameter fit model to derive EC50 (for agonist mode) or IC50 (for antagonist mode) values. For the antagonist mode, a % efficacy for each compound is calculated versus E2 (1 nM) alone. For the agonist mode, a % efficacy for each compound is calculated versus the response to tamoxifen. […] The average agonist activity of the compound of Example 1 alone was 17.7%±11.3% (n=4) (arithmetric mean±standard deviation). The values for the compound of Example 1 may be compared to 4-hydroxytamoxifen which generally results in >100% agonist activity.

In data set [2] the test system is pCTX-II. As to the kind of experiment: P-CTXII biomarker. It is filed as in vivo. An excerpt: pCTX-II is believed to be a useful biomarker reflecting efficacy relating to the treatment of OA. See for example, Garnero P et al Ann Rheum Dis 2003; 62:939-943; Mazieres B et al, Arthritis Rheum 2003; 48:5683
The target in data set [3] is ERβ receptor (Homo sapiens, UniProt Q92731). The data set can be described thus: Estrogen receptor competition binding assay (3H-estradiol displacement), ERβ. As to conditions: geometric mean±standard deviation, from IC50 by Cheng-Prusoff, read-out: Ki-β. The method, then: (§1) Estrogen Receptor Binding Assay:
(§2) Compounds are tested for binding affinity to both estrogen receptor types (ERα and ERβ) by a competition binding assay that measures the compound's ability to displace ^3H-estradiol from the receptors. IC50 and Ki values for both receptor types can be calculated.
(§3) A competition binding assay is run in a buffer containing 50 mM HEPES buffering reagent, pH 7.5, 1.5 mM ethylenediaminetetraacetic acid (“EDTA”), 150 mM NaCl, 10% glycerol, 1 mg/mL ovalbumin and 5 mM dithiothreitol (“DTT”), using 0.025 μCi per well ^3H-Estradiol (NEN#NET517 at 118 Ci/mmol, 1 mCi/mL), 10 ng/well ERα or ERβ receptor. A test compound is added at 10 different concentrations. Non-specific binding is determined in the presence of 1 μM of estradiol (17 β-estradiol). The binding reaction (140 μL) is incubated for 4 hours at room temperature, then 70 μl of cold DCC buffer is added to each reaction (DCC buffer contains per 50 mL of assay buffer, 750 mg of charcoal and 250 mg of dextran). Plates are mixed 8 minutes on an orbital shaker at 4° C. […] After an incubation of 2.5 hours, the plates are read in a counter. […] The Kd for ^3H-Estradiol is determined by saturation binding to ERα and ERβ receptors. The IC50 values for test compounds are converted to Ki using the Cheng-Prusoff equation, and the Kd determined by saturation binding assay.

In data set [4] the test system is immature rat uterus (estrogen-induced uterine weight). As to the kind of experiment: 3-Day immature rat uterus antagonist assay. It is filed as in vivo. As to conditions: oral, 3 days, with EE2 0.1 mg/kg. An excerpt: 3-Day Immature Rat Uterus Antagonist Assay:
This model for uterine antagonism utilizes immature (3 week old) female rats that are highly sensitive to estrogenic stimulation of the uterus given that their circulating estrogen levels are prepubertal. The uteri from immature rats are fully responsive to exogenous estrogen, yet are quiescent in the absence of exogenous estrogen. Administration of exogenous estrogen to immature rats produces a reliable elevation of uterine weight, which can be used to study uterine antagonist effects. The rats are treated with both estradiol and 4 different concentrations of a test compound for 3 days and then uterine wet weights are measured. […]
Uterine weight/body weight ratios (UWR) are calculated for each animal. The percent inhibition of the estrogen-induced response is then calculated by the following formula: percent inhibition=100×(UWRestrogen−UWRtest compound)/(UWRestrogen−UWRcontrol)
ED50 values are derived from a semi-log regression analysis of the linear aspect of the dose response curve. Both the UWR data and the percent inhibition data are statistically analyzed by one way analysis of variance (ANOVA) with post-hoc testing by Fisher's PLSD when indicated by a p<0.05.

In data set [5] the test system is OVX rat uterus. The data set can be described thus: 4-Day OVX rat uterine agonist assay. It is filed as in vivo. The method, then:
4-Day OVX Rat Uterine Agonist Assay:
Seventy-five day old rats are ovariectomized and treatment is started 14 days later when circulating estradiol levels have reached minimal levels. After 4 days of treatment with 3 doses of a test compound, (6 rats per group) body weight, uterine wet weight and uterine eosinophil peroxidase (EPO) activity are measured. Cholesterol levels are also measured to compare relative ability to lower cholesterol with other SERMs. If there is any question of uterine stimulation, histological examination will determine epithelial cell height.
A significant (>10% of the increase induced by estradiol @0.1 mg/kg) and dose-responsive increase in uterine EPO activity is used as an early indicator of potential uterine agonist activity. […] None of the groups dosed with the compound of Example 1 evidenced an increase in EPO activity that was >10% of that induced by estradiol at 0.1 mg/Kg. Significant, dose-related increases in uterine endometrial thickness have also been used as an early sign of potential SERM uterine agonist activity.

Data set [6] concerns the target T1, ERα receptor (Homo sapiens, UniProt P03372).
T1 sequence (P03372 1-595): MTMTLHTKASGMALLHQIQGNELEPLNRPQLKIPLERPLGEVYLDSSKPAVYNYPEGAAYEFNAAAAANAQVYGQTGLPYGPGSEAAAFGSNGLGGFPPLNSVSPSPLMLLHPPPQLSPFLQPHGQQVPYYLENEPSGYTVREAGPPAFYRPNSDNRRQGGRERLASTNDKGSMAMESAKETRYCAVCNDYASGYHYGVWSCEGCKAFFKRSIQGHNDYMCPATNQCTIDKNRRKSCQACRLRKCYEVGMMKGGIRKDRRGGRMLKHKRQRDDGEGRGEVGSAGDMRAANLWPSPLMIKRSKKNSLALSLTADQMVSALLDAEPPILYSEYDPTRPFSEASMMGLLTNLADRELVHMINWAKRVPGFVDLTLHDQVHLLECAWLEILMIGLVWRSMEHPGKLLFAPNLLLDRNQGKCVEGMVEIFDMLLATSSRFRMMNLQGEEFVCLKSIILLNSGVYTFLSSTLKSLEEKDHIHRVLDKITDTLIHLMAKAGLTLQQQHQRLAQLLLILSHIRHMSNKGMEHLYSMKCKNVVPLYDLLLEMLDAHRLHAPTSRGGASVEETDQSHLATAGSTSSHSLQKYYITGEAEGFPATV
The data set can be described thus: Estrogen receptor competition binding assay (3H-estradiol displacement), ERα. As to conditions: geometric mean±standard deviation, from IC50 by Cheng-Prusoff, read-out: Ki-α. The procedure:
as §1, §2, §3

For data set [7], the system named is OVX/MCT animals. As to the kind of experiment: OVX/Meniscal tear model of OA. It is filed as in vivo, rat. The method, then: The rat meniscal tear (MCT) model is a well-described model of OA in which joint damage and pain are induced by surgical intervention (transection of the medial meniscus) in one knee joint. In the standard MCT model using male rats, joint pathology develops progressively and is measured via joint histology at 3 weeks post-surgery.

For data set [8] the following is noted: marker of cartilage type II collagen turnover; cited from earlier work.
The mark [9] stands for this setting: n=4, arithmetic mean±standard deviation.

Some results are limits rather than exact numbers.

ERβ receptor, sequence (Q92731 whole entry): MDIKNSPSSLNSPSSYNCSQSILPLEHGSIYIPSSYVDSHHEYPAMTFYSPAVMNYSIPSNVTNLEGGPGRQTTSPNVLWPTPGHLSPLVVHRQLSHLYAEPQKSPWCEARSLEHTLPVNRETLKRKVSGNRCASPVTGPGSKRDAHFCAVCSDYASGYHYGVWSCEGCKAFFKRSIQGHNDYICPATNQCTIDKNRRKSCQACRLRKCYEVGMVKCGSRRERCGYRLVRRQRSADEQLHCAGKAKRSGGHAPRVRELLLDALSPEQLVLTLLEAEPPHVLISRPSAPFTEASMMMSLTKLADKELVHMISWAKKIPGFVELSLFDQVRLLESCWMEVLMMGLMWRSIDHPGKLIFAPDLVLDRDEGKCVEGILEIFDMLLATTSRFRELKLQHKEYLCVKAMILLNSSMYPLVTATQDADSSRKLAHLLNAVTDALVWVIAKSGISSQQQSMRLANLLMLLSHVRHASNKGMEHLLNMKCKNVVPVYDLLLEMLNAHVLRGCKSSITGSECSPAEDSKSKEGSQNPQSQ

In the case of 4-hydroxytamoxifen [reference compound], the agonist activity in data set [1] (setting [9]) was over 100%.
For the compound `Cc1ccc(-c2ccc3cc(O)ccc3c2Oc2ccc(OCCN3CCCCC3)cc2)s1.Cl` [Example 1, 6-(5-methylthiophen-2-yl)-5-(4-(2-(piperidin-1-yl)ethoxy)phenoxy)naphthalen-2-ol hydrochloride], the melting point was determined as 248.82 °C. In data set [2] (all doses), the “pCTX-II levels compared with 17α-ethynylestradiol treatment” value is listed as “not statistically different from those resulting from treatment with 17α-ethynylestradiol”. In [2] (in vivo), the pCTX-II result is “significantly and dose-dependently reduced pCTX-II”. In addition, the Ki in data set [3] was 0.2 ± 0.2 nM. For the same compound, the “ED50 (inhibition of estrogen-induced uterine weight/body weight ratio)” value in data set [4] turned out to be 0.053 mg/kg. Besides, the IC50 in [1] (Homo sapiens, Ishikawa, antagonist mode, n=4, geometric mean±standard deviation, read-out: relative IC50) came to 3.75 ± 1.71 nM. In addition, the agonist activity in [1] (setting [9]) is 17.7%±11.3%. In data set [1] (antagonist mode, versus E2 (1 nM) alone, n=4, arithmetic mean±standard deviation), the antagonist efficacy is recorded as 102%±8.4%. The “increase in EPO activity relative to that induced by estradiol at 0.1 mg/Kg” value in data set [5] (all dose groups) was “up to 10%”. For the same compound, in data set [5] (doses up to 10 mg/kg), the “uterine endometrial thickness, dose related increase vs OVX group” value is recorded as “did not result in significant, dose related increases in uterine endometrial thickness”. Also, the “uterine EPO activity, dose related increase vs OVX group” value in data set [5] (doses up to 10 mg/kg, 4 days, Tukey Kramer p<0.05) is “no significant dose related increases in EPO activity”. In [6], the Ki worked out at 0.15 ± 0.22 nM. Besides, in [7] (OVX animals, meniscal tear), the “doses with statistically significant pain reduction vs OVX/MCT group” value was at least 1.0 mg/kg and the joint pain entry was “reduced pain in a dose-dependent fashion”. In data set [7] (doses of 3 and 10 mg/kg), the “reduction in joint pain compared with 17α-ethynylestradiol” value is on record as “not statistically different from those induced by 17α-ethynylestradiol”.
`COc1ccc2c(c1)OC(C)(C)[C@@H](c1ccccc1)[C@@H]2c1ccc(OCCN2CCCC2)cc1` [levormeloxifene]: the “urinary levels of CTX-II” value in data set [8] is reported as “significantly decrease the urinary levels of CTX-II”.
